Experimental data from ChEMBL document CHEMBL1124430, “Dermorphin analogues carrying an increased positive net charge in their "message" domain display extremely high mu opioid receptor selectivity” (J Med Chem, 1989).
Square brackets hold non-standard residues; d marks the D form. Peptide text beside a SMILES is read from it. dNle = CCCC[C@@H](N)C(=O)O; dNva = CCC[C@@H](N)C(=O)O; Orn = NCCC[C@H](N)C(=O)O

Legend:
Cavia porcellus [1] = species: Cavia porcellus; test: Concentration of compound to inhibit 50% (IC50) electrically evoked contractions was tested in Guinea pig ileum(GPI) assay.; assay type: functional
Mus musculus [2] = species: Mus musculus; test: Ke value for naloxone as antagonist (compound) was measured by using Mouse vas deferens (MVD) assay.; assay type: functional
[3] = target: Delta-type opioid receptor (Rattus norvegicus) (UniProt P33533); test: The relative potency of compound was measured against Opioid receptor delta 1 to that of [Leu]enkephalin in [3H]DSLET binding assay.
[4] = Ratio of IC50 in Mouse vas deferens and Guinea pig ileum assay; assay type: functional
Mus musculus [5] = species: Mus musculus; test: Concentration of compound to inhibit 50% (IC50) electrically evoked contractions was tested in Mouse vas deferens (MVD) assay.; assay type: functional
[6] = target: Mu-type opioid receptor (Rattus norvegicus) (UniProt P33535); test: The relative potency of compound was measured against Opioid receptor mu 1 to that of [Leu]enkephalin in [3H]DAGO binding assay.
Cavia porcellus [7] = species: Cavia porcellus; test: Ke value for naloxon as antagonist (compound) was measured by using Guinea pig ileum assay.; assay type: functional
Mus musculus [8] = species: Mus musculus; test: The relative potency of compound was measured by comparing with [Leu]enkephalin in Mouse vas deferens (MVD) assay.; assay type: functional
Cavia porcellus [9] = species: Cavia porcellus; test: The relative potency of compound was measured by comparing with [Leu]enkephalin in Guinea pig ileum(GPI) assay.; assay type: functional
Mus musculus [10] = species: Mus musculus; test: The relative potency of compound was measured by comparing the potency of compound to the [Leu]enkephalin in Mouse vas deferens (MVD) assay.; assay type: functional
Cavia porcellus [11] = species: Cavia porcellus; test: The relative potency of compound was measured by comparing the potency of compound to the [Leu]enkephalin in Guinea pig ileum(GPI) assay.; assay type: functional
[12] = target: Delta-type opioid receptor (Rattus norvegicus) (UniProt P33533); test: The relative potency of compound was measured against opioid receptor delta to that of [Leu]enkephalin in [3H]DSLET binding assay.
[13] = target: Mu-type opioid receptor (Rattus norvegicus) (UniProt P33535); test: The relative potency of compound was measured against Opioid receptor mu to that of [Leu]enkephalin in [3H]DAGO binding assay.
[14] = target: Mu-type opioid receptor (Rattus norvegicus) (UniProt P33535); test: Ratio of binding affinity of opioid receptor mu and opioid receptor delta
[15] = target: T1, Delta-type opioid receptor (Rattus norvegicus, UniProt P33533); test: Binding affinity against opioid receptor delta by displacement of radioligand [3H]DSLET in rat brain membrane; assay type: cell membranes
Mu-type opioid receptor [16] = target: T2, Mu-type opioid receptor (Rattus norvegicus, UniProt P33535); test: Binding affinity against opioid receptor mu by displacement of radioligand [3H]DAGO in rat brain membrane; assay type: cell membranes
[17] = target: T1, Delta-type opioid receptor; test: Binding affinity against Opioid receptor delta 1 by displacement of radioligand [3H]DSLET in rat brain membrane; assay type: cell membranes
Mu-type opioid receptor [18] = target: T2, Mu-type opioid receptor; test: Binding affinity against Opioid receptor mu 1 by displacement of radioligand [3H]-DAGO in rat brain membrane; assay type: cell membranes
Mu-type opioid receptor [19] = target: T2, Mu-type opioid receptor; test: Binding affinity against Opioid receptor mu 1 by displacement of radioligand [3H]DAGO in rat brain membrane; assay type: cell membranes
[20] = target: Delta-type opioid receptor (Rattus norvegicus) (UniProt P33533); test: The relative potency of compound was measured against dOpioid receptor delta 1 to that of [Leu]enkephalin in [3H]DSLET binding assay.
[21] = target: T1, Delta-type opioid receptor; test: Binding affinity against delta opioid receptor by displacement of radioligand [3H]DSLET in rat brain membrane; assay type: cell membranes
Mu-type opioid receptor [22] = target: T2, Mu-type opioid receptor; test: Binding affinity against mu opioid receptor by displacement of radioligand [3H]DAGO in rat brain membrane; assay type: cell membranes

T1 sequence (P33533 whole entry): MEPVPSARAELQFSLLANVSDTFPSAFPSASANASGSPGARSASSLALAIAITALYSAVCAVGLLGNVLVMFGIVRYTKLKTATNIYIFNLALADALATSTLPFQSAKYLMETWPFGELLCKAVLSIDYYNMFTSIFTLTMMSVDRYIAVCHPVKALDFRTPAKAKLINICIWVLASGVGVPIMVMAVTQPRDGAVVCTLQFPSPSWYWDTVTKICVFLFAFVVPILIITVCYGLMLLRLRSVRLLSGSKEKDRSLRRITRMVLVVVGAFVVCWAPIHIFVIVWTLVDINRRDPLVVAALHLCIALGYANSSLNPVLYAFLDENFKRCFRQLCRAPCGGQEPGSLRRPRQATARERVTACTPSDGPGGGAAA
Delta-type opioid receptor (Rattus norvegicus), sequence (P33533 whole entry): as above
Mu-type opioid receptor (Rattus norvegicus), sequence (P33535 whole entry): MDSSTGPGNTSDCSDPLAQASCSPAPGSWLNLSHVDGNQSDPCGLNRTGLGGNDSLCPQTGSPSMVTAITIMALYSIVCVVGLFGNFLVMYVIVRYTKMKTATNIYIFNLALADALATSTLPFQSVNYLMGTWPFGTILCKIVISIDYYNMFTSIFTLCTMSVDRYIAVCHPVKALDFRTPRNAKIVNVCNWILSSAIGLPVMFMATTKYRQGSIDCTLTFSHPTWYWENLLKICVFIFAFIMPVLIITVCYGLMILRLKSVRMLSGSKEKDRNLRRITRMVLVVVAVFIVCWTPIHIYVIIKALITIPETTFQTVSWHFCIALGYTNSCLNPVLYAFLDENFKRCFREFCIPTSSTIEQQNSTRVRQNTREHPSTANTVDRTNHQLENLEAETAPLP
T2 sequence (P33535 whole entry): as above

Structure (SMILES): C[C@@H](NC(=O)[C@@H](N)Cc1ccc(O)cc1)C(=O)N[C@@H](Cc1ccccc1)C(=O)N[C@@H](Cc1ccccc1)C(N)=O (H-Y[dA]FF-NH2)
- IC50 (Cavia porcellus [1]): 3.23 nM
- Ke (Mus musculus [2]): 1.31 nM
- Relative potency [3]: 0.00405
- Ratio [4]: 247
- IC50 (Mus musculus [5]): 797 nM
- Relative potency [6]: 6.15
- Ke (Cavia porcellus [7]): 0.789 nM
- Relative potency (Mus musculus [8]): 0.0143
- Relative potency (Cavia porcellus [9]): 76.2

Structure (SMILES): NC(=O)[C@@H]1CC(=O)NCCC[C@@H](NC(=O)[C@@H](N)c2ccc(O)cc2)C(=O)N[C@@H](Cc2ccccc2)C(=O)N1 [listing 1 of 2 here]
- Ke (Mus musculus [2]): 2.11 nM
- Ratio [4]: 107
- Relative potency (Mus musculus [10]): 0.00294
- Ke (Cavia porcellus [7]): 1.57 nM
- Relative potency (Cavia porcellus [11]): 6.8

Structure (SMILES): NC(=O)[C@H]1CC(=O)NCCC[C@H](NC(=O)[C@@H](N)c2ccc(O)cc2)C(=O)N[C@@H](Cc2ccccc2)C(=O)N1
- Relative potency [12]: 0.00114
- Relative potency [13]: 0.907
- Ratio [14]: 213

Structure (SMILES): N=C(N)NCCC[C@@H](NC(=O)C(N)Cc1ccc(O)cc1)C(=O)NC(Cc1ccccc1)C(=O)NCCC(N)C(=O)O (stereo not given in full)
- Ki [15]: 12600 nM
- Ki (Mu-type opioid receptor [16]): 5.78 nM

Structure (SMILES): CCCC[C@@H](NC(=O)[C@@H](N)Cc1ccc(O)cc1)C(=O)N[C@@H](Cc1ccccc1)C(=O)N[C@@H](CCCN)C(N)=O (H-Y[dNle]F[Orn]-NH2)
- IC50 (Cavia porcellus [1]): 168 nM
- Ke (Mus musculus [2]): 1.5 nM
- Ratio [4]: 13.6
- IC50 (Mus musculus [5]): 2290 nM
- Ke (Cavia porcellus [7]): 1.01 nM
- Relative potency (Mus musculus [8]): 0.00498
- Relative potency (Cavia porcellus [9]): 1.46

Structure (SMILES): C[C@@H](NC(=O)[C@@H](N)Cc1ccc(O)cc1)C(=O)N[C@@H](Cc1ccccc1)C(=O)N[C@@H](Cc1ccccc1)C(=O)N[C@@H](CCCN=C(N)N)C(=O)N[C@@H](CCCN=C(N)N)C(N)=O
- Ki [17]: 167 nM
- Ki (Mu-type opioid receptor [18]): 2.57 nM
- IC50 (Cavia porcellus [1]): 21.6 nM
- Ke (Mus musculus [2]): 1.27 nM
- Relative potency [3]: 0.0152
- Ratio [4]: 60.2
- IC50 (Mus musculus [5]): 1300 nM
- Relative potency (Mus musculus [10]): 0.00875
- Relative potency [6]: 3.67
- Ke (Cavia porcellus [7]): 0.57 nM
- Relative potency (Cavia porcellus [11]): 11.4

Structure (SMILES): C[C@@H](NC(=O)[C@@H](N)Cc1ccc(O)cc1)C(=O)NCC(=O)N(C)[C@@H](Cc1ccccc1)C(=O)NCCO [DAMGO]
- Ki [17]: 1280 nM
- IC50 (Cavia porcellus [1]): 28.3 nM
- IC50 (Mus musculus [5]): 950 nM

Structure (SMILES): NC(=O)[C@@H]1CC(=O)NCCC[C@@H](NC(=O)[C@@H](N)c2ccc(O)cc2)C(=O)N[C@@H](Cc2ccccc2)C(=O)N1 [listing 2 of 2 here]
- IC50 (Cavia porcellus [1]): 36.2 nM
- Ki [15]: 2220 nM
- IC50 (Mus musculus [5]): 3880 nM
- Ki (Mu-type opioid receptor [16]): 10.4 nM

Structure (SMILES): NC(N)=NCCC[C@@H](NC(=O)C(N)Cc1ccc(O)cc1)C(=O)NC(Cc1ccccc1)C(=O)NCCC(N)C(=O)O (stereo not given in full)
- IC50 (Cavia porcellus [1]): 257 nM
- Ke (Mus musculus [2]): 1.01 nM
- Relative potency [12]: 0.000202
- Ratio [4]: 2.56
- IC50 (Mus musculus [5]): 659 nM
- Relative potency [13]: 1.63
- Relative potency (Mus musculus [10]): 0.0173
- Ke (Cavia porcellus [7]): 1.32 nM
- Ratio [14]: 2180
- Relative potency (Cavia porcellus [11]): 0.956

Structure (SMILES): CCCC[C@H](NC(=O)[C@H](Cc1ccccc1)NC(=O)[C@@H](CCC)NC(=O)[C@@H](N)Cc1ccc(O)cc1)C(N)=O
- Ki [17]: 181 nM
- Ki (Mu-type opioid receptor [19]): 3.53 nM
- IC50 (Cavia porcellus [1]): 30.6 nM
- Ke (Mus musculus [2]): 1.27 nM
- Ratio [4]: 5
- IC50 (Mus musculus [5]): 153 nM
- Relative potency [20]: 0.014
- Relative potency [6]: 2.67
- Ke (Cavia porcellus [7]): 1.72 nM
- Relative potency (Mus musculus [8]): 0.0745
- Relative potency (Cavia porcellus [9]): 8.04

Structure (SMILES): NC(=O)[C@H](CCCN=C(N)N)NC(=O)[C@H](CCCN=C(N)N)NC(=O)[C@@H]1CC(=O)NCCC[C@@H](NC(=O)[C@@H](N)Cc2ccc(O)cc2)C(=O)N[C@@H](Cc2ccccc2)C(=O)N1 [listing 1 of 2 here]
- Ki [21]: 1880 nM
- Ki (Mu-type opioid receptor [22]): 23.6 nM
- IC50 (Cavia porcellus [1]): 40.9 nM
- IC50 (Mus musculus [5]): 745 nM

Structure (SMILES): CCC[C@@H](NC(=O)[C@@H](N)Cc1ccc(O)cc1)C(=O)N[C@@H](Cc1ccccc1)C(=O)N[C@@H](CCCN)C(N)=O (H-Y[dNva]F[Orn]-NH2)
- IC50 (Cavia porcellus [1]): 104 nM
- Ke (Mus musculus [2]): 1.47 nM
- Ratio [4]: 2.61
- IC50 (Mus musculus [5]): 271 nM
- Ke (Cavia porcellus [7]): 1.55 nM
- Relative potency (Mus musculus [8]): 0.042
- Relative potency (Cavia porcellus [9]): 2.36

Structure (SMILES): NCCCC[C@H](NC(=O)[C@H](Cc1ccccc1)NC(=O)[C@@H](CCCN=C(N)N)NC(=O)[C@@H](N)Cc1ccc(O)cc1)C(N)=O
- IC50 (Cavia porcellus [1]): 254 nM
- Ke (Mus musculus [2]): 1.64 nM
- IC50 (Mus musculus [5]): 781 nM
- Ke (Cavia porcellus [7]): 1.17 nM

Structure (SMILES): NCCC[C@H](NC(=O)[C@H](Cc1ccccc1)NC(=O)[C@@H](CCCN=C(N)N)NC(=O)[C@@H](N)Cc1ccc(O)cc1)C(N)=O
- IC50 (Cavia porcellus [1]): 346 nM
- Ke (Mus musculus [2]): 1.13 nM
- Relative potency [12]: 0.000272
- Ratio [4]: 3.15
- IC50 (Mus musculus [5]): 1090 nM
- Relative potency [13]: 7.83
- Relative potency (Mus musculus [10]): 0.0105
- Ke (Cavia porcellus [7]): 1.24 nM
- Ratio [14]: 7740
- Relative potency (Cavia porcellus [11]): 0.712

Structure (SMILES): NC(=O)[C@H](CCCN=C(N)N)NC(=O)[C@H](CCCN=C(N)N)NC(=O)[C@@H]1CC(=O)NCCC[C@@H](NC(=O)[C@@H](N)Cc2ccc(O)cc2)C(=O)N[C@@H](Cc2ccccc2)C(=O)N1 [listing 2 of 2 here]
- Ke (Mus musculus [2]): 2.02 nM
- Ratio [4]: 18.2
- Relative potency (Mus musculus [10]): 0.0153
- Ke (Cavia porcellus [7]): 2.03 nM
- Relative potency (Cavia porcellus [11]): 6.01
